Data: patent US11530244B2, “Cyclic polypeptides for PCSK9 inhibition” (priority 2018, dated 2022)
Starred links: 1 amine or outer side, 2 acyl side, 3 side chain; linkers in the order of their positions; H or OH if unused. Positions of bridges follow the written chain, without caps; N, C: chain ends. Non-standard residues stand in square brackets, D forms with d. Residues, ends and D or L forms follow the SMILES beside them. Triazole bridges read from a SMILES are 1,4-linked. Phe(3-CH2NH2) = O=C([C@H](Cc1cccc(CN[*:3])c1)N[*:1])[*:2]; Trp(5-F) = N[C@@H](Cc1c[nH]c2ccc(F)cc12)C(=O)O; X10 = O=C(CCSCc1ccc2ccc(CSCCN[*:1])cc2c1)[*:2]; Phe(4-CH2NH2) = NCc1ccc(C[C@H](N)C(=O)O)cc1; Lys(N3) = [N-]=[N+]=NCCCC[C@H](N)C(=O)O; X4 = O=C(CCSCc1cccc(CSCCN[*:1])c1)[*:2]; X23 = CC[C@@]1(C(=O)[*:2])CCCN1[*:1]; mXylylene = c1cc(C[*:1])cc(C[*:2])c1; AEF = NCCOc1ccc(C[C@H](N)C(=O)O)cc1; d(aThr) = C[C@@H](O)[C@@H](N)C(=O)O; Adipoyl = O=C(CCCCC(=O)[*:2])[*:1]; Val(3-OH) = CC(C)(O)[C@H](N)C(=O)O; hPhe = N[C@@H](CCc1ccccc1)C(=O)O; Aad = N[C@@H](CCCC(=O)O)C(=O)O; αMeP = C[C@@]1(C(=O)O)CCCN1; Hpra = C#CCC[C@H](N)C(=O)O; Ac3c = NC1(C(=O)O)CC1; Mpa = O=C(O)CCS

Columns and labels:
[1] = molecular target: human PCSK9 / human LDLR EGFa domain interaction (Homo sapiens (Human), UniProt Q8NBP7); experiment: TR-FRET assay of inhibition of the PCSK9-LDLR protein-protein interaction; type: binding; settings: TR-FRET, 20 nM human PCSK9, 20 nM human LDLR EGFa domain, 2 hours room temperature; read-out: IC50
Summary of the method: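 Readout is the TR-FRET signal between europium anti-6×His on his-tagged LDLR EGFa domain and Ulight streptavidin on biotinylated PCSK9, both proteins at 20 nM and both detection reagents at 5 nM. Incubation lasted 2 hours at room temperature; compounds were run in dose-response with a 4-parameter fit.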

[2] = molecular target: PCSK9 (Homo sapiens (Human), UniProt Q8NBP7); experiment: PCSK9 Alexa FRET Standard assay (displacement of AlexaFluor647 tagged cyclic peptide Reagent A); type: binding; settings: PCSK9 Alexa FRET Standard assay, 0.5 nM PCSK9, 20 nM AF cyclic peptide Reagent A; read-out: IC50
Summary of the method: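 TR-FRET displacement: 0.5 nM biotinylated PCSK9 with 1.25 nM Strep-Eu and 20 nM AlexaFluor-tagged cyclic peptide (final) in 50 mM HEPES pH 7.4, 0.15 M NaCl, 5 mM CaCl2, 0.01% BSA, 0.01% P20, ≥2 h at room temperature. IC50 from sigmoidal fit, converted to Ki via peptide KD; falling Eu counts flagged false positives.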

Chain of PCSK9 (Q8NBP7 153-692): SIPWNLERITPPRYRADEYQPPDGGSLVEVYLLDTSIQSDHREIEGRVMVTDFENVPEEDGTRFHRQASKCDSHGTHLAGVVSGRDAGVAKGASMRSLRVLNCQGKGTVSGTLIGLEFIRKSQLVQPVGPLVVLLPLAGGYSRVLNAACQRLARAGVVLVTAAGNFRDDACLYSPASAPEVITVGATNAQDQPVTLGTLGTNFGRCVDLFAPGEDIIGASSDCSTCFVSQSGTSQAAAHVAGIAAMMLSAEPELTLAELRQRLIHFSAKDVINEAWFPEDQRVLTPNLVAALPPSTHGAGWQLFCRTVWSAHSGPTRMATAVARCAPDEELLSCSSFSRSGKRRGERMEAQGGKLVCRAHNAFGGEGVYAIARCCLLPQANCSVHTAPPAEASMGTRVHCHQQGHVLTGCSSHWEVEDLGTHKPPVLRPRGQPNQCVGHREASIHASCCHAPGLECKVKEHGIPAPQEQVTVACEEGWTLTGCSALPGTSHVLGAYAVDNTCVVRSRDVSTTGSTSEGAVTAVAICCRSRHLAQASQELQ
Chain of human PCSK9 / human LDLR EGFa domain interaction (Q8NBP7 153-692): as above
Chain of human PCSK9 / human LDLR EGFa domain interaction (Q8NBP7 31-152 partner): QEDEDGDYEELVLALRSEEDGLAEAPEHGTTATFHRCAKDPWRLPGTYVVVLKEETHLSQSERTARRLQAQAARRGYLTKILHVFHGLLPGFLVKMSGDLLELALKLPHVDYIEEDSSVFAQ

`C[C@@]12CCCN1C(=O)[C@H](Cc1ccc(O)cc1)NC(=O)[C@H](Cc1c[nH]cn1)NC(=O)[C@H](CC(=O)O)NC(=O)[C@H](Cc1c[nH]c3ccc(F)cc13)NC(=O)[C@H](Cc1c[nH]c3ccc(F)cc13)NC(=O)CNC(=O)C1(CC1)NC(=O)CCSCc1cccc(c1)CSC[C@@H](C(N)=O)NC2=O` [Compound 281] ([Mpa][Ac3c]G[Trp(5-F)][Trp(5-F)]DHY[αMeP]C-NH2; linker 1-10 via mXylylene) showed an IC50 [1] of 0.1 to 100 nM and an IC50 [2] of 100 to 1000 nM.

`NCCCC[C@@H]1NC(=O)CCSCc2cccc(c2)CSC[C@@H](C(N)=O)NC(=O)[C@@H]2CCCN2C(=O)[C@H](Cc2ccc(OCCN)cc2)NC(=O)[C@H](Cc2c[nH]cn2)NC(=O)[C@H](CC(=O)O)NC(=O)[C@H](Cc2c[nH]c3ccc(F)cc23)NC(=O)[C@H](Cc2c[nH]c3ccc(F)cc23)NC(=O)CNC1=O` [Compound 265] ([Mpa]KG[Trp(5-F)][Trp(5-F)]DH[AEF]PC-NH2; linker 1-10 via mXylylene) showed an IC50 [1] of 100 to 1000 nM and an IC50 [2] of 100 to 1000 nM.

`COc1ccc(C[C@@H]2NC(=O)[C@@H]3CC/C=C\CO[C@H]4C[C@@H](C(=O)N3)N(C4)C(=O)[C@H](Cc3c[nH]c4ccc(F)cc34)NC(=O)[C@H](Cc3c[nH]c4ccc(F)cc34)NC(=O)[C@@H](C)NC(=O)[C@H](C)NC(=O)[C@@H](NC(C)=O)CC(=O)NCc3ccc(cc3)C[C@@H](C(=O)O)NC(=O)[C@]3(C)CCCN3C2=O)cc1` [Compound 514] gave an IC50 [1] of 100 to 1000 nM and an IC50 [2] of 100 to 1000 nM.

`CC[C@@]12CCCN1C(=O)[C@H](Cc1ccc(O)cc1)NC(=O)[C@H](Cc1cnc[nH]1)NC(=O)[C@H](CC(=O)O)NC(=O)[C@H](Cc1c[nH]c3ccc(F)cc13)NC(=O)[C@H](Cc1c[nH]c3ccc(F)cc13)NC(=O)CNC(=O)[C@H](CCCCN)NC(=O)CCSCc1cccc(c1)CSC[C@@H](C(N)=O)NC2=O` [Compound 378] ([Mpa]KG[Trp(5-F)][Trp(5-F)]DHY[X23]C-NH2; linker 1-10 via mXylylene) was tested, and the IC50 [1] was 0.1 to 100 nM and the IC50 [2] was 0.11 to 100 nM.

Work on `COc1ccc(C[C@@H]2NC(=O)[C@H](Cc3cnc[nH]3)NC(=O)[C@H](CC(=O)O)NC(=O)[C@H](Cc3c[nH]c4ccc(F)cc34)NC(=O)[C@H](Cc3c[nH]c4ccc(F)cc34)NC(=O)[C@@H](C)NC(=O)[C@H](CCCCN)NC(=O)CCSCc3ccc4ccc(cc4c3)CSCCNC(=O)[C@]3(C)CCCN3C2=O)cc1` [Compound 405] (cyclo(DHY(Me)[αMeP][X10]K[dA][Trp(5-F)][Trp(5-F)])) yielded an IC50 [1] of 0.1 to 100 nM and an IC50 [2] of 100 to 1000 nM.

`CC(=O)N[C@H]1CCc2cn(nn2)CCCC[C@@H](C(N)=O)NC(=O)[C@]2(C)CCCN2C(=O)[C@H](Cc2ccc(O)cc2)NC(=O)[C@H](Cc2cnc[nH]2)NC(=O)[C@H](CC(=O)O)NC(=O)[C@H](Cc2c[nH]c3ccc(F)cc23)NC(=O)[C@H](Cc2c[nH]c3ccc(F)cc23)NC(=O)CNC(=O)[C@H](C)NC1=O` [Compound 339] (Ac-[Hpra]AG[Trp(5-F)][Trp(5-F)]DHY[αMeP][Lys(N3)]-NH2; triazole 1-10) gave an IC50 [1] of 1000 to 12100 nM and an IC50 [2] of 1000 to 12100 nM.

`C[C@@H]1NC(=O)CCCCC(=O)NCc2ccc(cc2)C[C@@H](C(N)=O)NC(=O)[C@]2(C)CCCN2C(=O)[C@H](Cc2ccc(O)cc2)NC(=O)[C@H](Cc2cnc[nH]2)NC(=O)[C@H](CC(=O)O)NC(=O)[C@H](Cc2c[nH]c3ccc(F)cc23)NC(=O)[C@H](Cc2c[nH]c3ccc(F)cc23)NC(=O)CNC1=O` [Compound 370] (AG[Trp(5-F)][Trp(5-F)]DHY[αMeP][Phe(4-CH2NH2)]-NH2; linker N-9 via Adipoyl) was tested, and the IC50 [1] was 0.1 to 100 nM and the IC50 [2] was 100 to 1000 nM.

For `NCCCC[C@@H]1NC(=O)CCSCc2cccc(c2)CSC[C@@H](C(N)=O)NC(=O)[C@@H]2CCCN2C(=O)[C@H](Cc2ccc(O)cc2)NC(=O)[C@H](Cc2c[nH]cn2)NC(=O)[C@H](CC(=O)O)NC(=O)[C@H](CCc2ccccc2)NC(=O)[C@H](Cc2c[nH]c3ccc(F)cc23)NC(=O)CNC1=O` [Compound 244] ([Mpa]KG[Trp(5-F)][hPhe]DHYPC-NH2; linker 1-10 via mXylylene), the IC50 [1] was 100 to 1000 nM and the IC50 [2] was 100 to 1000 nM.

With `COc1ccc(C[C@@H]2NC(=O)[C@@H]([C@@H](C)O)NC(=O)[C@H](CCCC(=O)O)NC(=O)[C@H](Cc3c[nH]c4ccc(F)cc34)NC(=O)[C@H](Cc3cccc(CN)c3)NC(=O)[C@@H](C)NC(=O)[C@H](C)NC(=O)CCSCc3cccc(c3)CSCCNC(=O)[C@]3(C)CCCN3C2=O)cc1` [Compound 346] (cyclo(A[dA][Phe(3-CH2NH2)][Trp(5-F)][Aad][d(aThr)]Y(Me)[αMeP][X4])) the IC50 [1] was 0.1 to 100 nM and the IC50 [2] was 1000 to 12100 nM.

With `CC(C)(O)[C@@H]1NC(=O)CCSCc2cccc(c2)CSC[C@@H](C(N)=O)NC(=O)[C@]2(C)CCCN2C(=O)[C@H](Cc2ccc(O)cc2)NC(=O)[C@H](Cc2cnc[nH]2)NC(=O)[C@H](CC(=O)O)NC(=O)[C@H](Cc2c[nH]c3ccc(F)cc23)NC(=O)[C@H](Cc2c[nH]c3ccc(F)cc23)NC(=O)CNC1=O` [Compound 374] ([Mpa][Val(3-OH)]G[Trp(5-F)][Trp(5-F)]DHY[αMeP]C-NH2; linker 1-10 via mXylylene) the IC50 [1] was 0.1 to 100 nM and the IC50 [2] was 100 to 1000 nM.
